Assay results published in US20100204295A1, “TREATMENT OF ALLERGIC DISEASE WITH IMMUNOMODULATOR COMPOUNDS” (SCICLONE PHARMACEUTICALS, INC., priority 2007, published 2010).

Key:
[1] = tested on: eosinophils and neutrophils in the lung tissue; assay: Lung tissue eosinophil peroxidase (EPO) and myeloperoxidase (MPO), guinea pig model; type: in vivo, Dunkin-Hartley guinea pigs
Procedure: Animals were sensitized on day 0 ip with 50 mg/kg OVA. On Days 17, 18, 19, and 20, animals received an ip injection between 8 and 10 am with PBS, SCV-07 at 1 ug/kg, or SCV-07 at 10 ug/kg (Peptide treatment). Between 8 and 10 a.m. on Day 21, animals were administered peptide 2 hours before OVA or saline (NSS) aerosol challenge. 30 min before OVA or NSS aerosol challenge each animal was injected ip with an antihistamine (6.1 mg/kg pyrilamine maleate) to prevent death due to the anaphylactic response that accompanies aerosol OVA challenge. Animals were exposed to aerosol in pairs with either 1% OVA solution or NSS for 5 min in a plexiglass chamber (22×22×29 cm) using a DeVilbiss Model 35B Ultrasonic Nebulizer. Animals were observed during the total 5 min aerosolization and comments recorded. Within 22-24 hours after challenge, animals were euthanized, bled by cardiac puncture, lavaged and lung lobes removed for measurement of cellular infiltration. At the time of OVA or NSS challenge and euthanasia, animal weights ranged from approximately 350-550 g, with the average weight approximately 420 g. This experimental protocol is similar to that used in previously published studies (Regal and Fraser, 1996; Regal et al., 2000). Animals were euthanized with pentobarbital (100-200 mg/kg), bled by cardiac puncture, and lavaged with room temperature PBS. For bronchoalveolar lavage (BAL), the trachea was cannulated and 4 volumes of PBS were introduced into the tracheal cannula and gently withdrawn. Total lavage volume was 60 ml/kg. The BAL was centrifuged to sediment the cells, and the BAL cell pellet re-suspended in 1.0 ml PBS for determination of the total number of white blood cells (WBC) recovered in the BAL of each animal. The BAL supernatant was frozen at −70 C for determination of total protein recovered in the BAL supernatant using the method of Lowry et al. (1951). Total white blood cells in BAL were counted by standard methods in a hemacytometer using Turk's solution. Differential counts were obtained from cytospin preparations of BAL cells (3×10^4 cells) stained with a modified Wrights' stain (Diff Quik, American Scientific Products, McGraw Park, Ill.). Four hundred cells were counted and identified as eosinophils, neutrophils, or mononuclear cells. […] EPO activity from the homogenized lung after lavage was expressed as total OD/min from the left caudal lobe. MPO activity from the homogenized lung after lavage was expressed as total units of enzyme activity from the right caudal lobe. […] OD412 of the BAL supernatant was also determined to estimate the number of RBCS that were lysed during the lavage procedure and prior to re-suspension of the cells for counting. […]

[2] = tested on: OVA specific IgG1; assay: OVA specific IgG1 in serum by ELISA, guinea pig model; type: in vivo, Dunkin-Hartley guinea pigs; conditions: 1 or 10 ug/kg ip days 17-21
Procedure: Animals were sensitized on day 0 ip with 50 mg/kg OVA. On Days 17, 18, 19, and 20, animals received an ip injection between 8 and 10 am with PBS, SCV-07 at 1 ug/kg, or SCV-07 at 10 ug/kg (Peptide treatment). Between 8 and 10 a.m. on Day 21, animals were administered peptide 2 hours before OVA or saline (NSS) aerosol challenge. 30 min before OVA or NSS aerosol challenge each animal was injected ip with an antihistamine (6.1 mg/kg pyrilamine maleate) to prevent death due to the anaphylactic response that accompanies aerosol OVA challenge. Animals were exposed to aerosol in pairs with either 1% OVA solution or NSS for 5 min in a plexiglass chamber (22×22×29 cm) using a DeVilbiss Model 35B Ultrasonic Nebulizer. Animals were observed during the total 5 min aerosolization and comments recorded. Within 22-24 hours after challenge, animals were euthanized, bled by cardiac puncture, lavaged and lung lobes removed for measurement of cellular infiltration. At the time of OVA or NSS challenge and euthanasia, animal weights ranged from approximately 350-550 g, with the average weight approximately 420 g. […]
OVA specific IgG1 in serum was determined by ELISA as previously described (Fraser et al., 1998; Regal et al., 2000). The data were expressed as the concentration of OVA specific IgG1 in the sample divided by the concentration of OVA specific IgG1 in the standard, defined as 1. […]

[3] = tested on: thymocyte and lymphocyte proliferation; conditions: cited from earlier work

For `N[C@H](CCC(=O)N[C@@H](Cc1c[nH]c2ccccc12)C(=O)O)C(=O)O` [SCV-07, γ-D-glutamyl-L-tryptophan], the “Lung MPO in animals challenged with NSS aerosol” value ([1]; 1 ug/kg, p<0.05 vs PBS NSS control) was “significantly reduced”, the “Change in lung EPO from NSS to OVA vs PBS treatment” value ([1]; 10 ug/kg, ANOVA contrast) was “greater” and the “Lung EPO in animals challenged with NSS aerosol” value ([1]; 10 ug/kg, p<0.05 vs PBS NSS control) was “significantly reduced”. For the same compound, the “Change in lung MPO from NSS to OVA” value ([1]; ANOVA contrast vs PBS treatment) was “did not differ”, the “Concentration of OVA specific IgG1 antibody in the serum” value [2] was “did not significantly affect” and the “Con-A-induced thymocyte and lymphocyte proliferation” value [3] was “increases”.
